Measured values reported in PubChem BioAssay AID2060882 (Molecular Pharmacology Branch, DTP, NCI, 2025).

System: 898857-211-R-J1-PDC complex spheroids, growth % test/control
Test: Anticancer human tumor 898857-211-R-J1-PDC patient-derived melanoma cell line growth inhibition [RAS]
Conditions: for IC50: curve of first compound; for viability, T/C: stronger effect = lower value
From the text: RAS pathway inhibitors in Combinations in Complex Spheroids
A high-throughput screen of multi-cell type tumor spheroids was designed to identify active combinations of RAS pathway inhibitors and targeted small molecules. Complex spheroids include a stromal component modeled by human endothelial cells (HUVEC) and fibroblasts modeled by human mesenchymal stem cells (MSCs). The concentration ranges selected for each drug and investigational agent were based upon clinically achievable concentrations if the clinical Cmax of the agent was known.
Compounds. The drugs and investigational agents: abemaciclib (NSC768073), cobimetinib (NSC768068), divarasib (GDC6063, NSC841802), docetaxel (NSC628503), GDC-1971 (RLY-1971, NSC841576), gemcitabine (NSC613327), inavolisib (NSC800729), ipatasertib (NSC767898), KB-0742 (NSC834161), MRTX-1133 (NSC836407), osimertinib (NSC779217), RMC-4630 (NSC839698), RMC-6236 (NSC851965), RMC-6291 (NSC852671), Ro-3306 (NSC812927), sapanisertib (NSC764658), SN-38 (NSC673596), staurosporine (NSC755774), SY5609 (NSC837396), and tovorafenib (DAY101, NSC766906), were obtained from the National Cancer Institute (NCI) Developmental Therapeutics Program Chemical Repository. The FDA-approved anticancer drug set is available from the NCI Developmental Therapeutics Program. […] The stock solutions were prepared in dimethyl sulfoxide (DMSO, Sigma-Aldrich, St. Louis, MO, cat. D2650) at 800-fold the tested concentration and stored at -70 degrees C prior to their use. All drugs and investigational agents were tested over a range starting from a high concentration at or near the clinical Cmax and decreasing in half-log increments. If the clinical Cmax for an agent had not been determined, the highest concentration tested was 10 microM.
Cell Culture. All cells were maintained in an incubator at 37 degrees C and 5% CO2 with 95% humidity. The PDC lines were cultured according to standard operating procedures established by the NCI PDMR. All PDCs were thawed and cultured in Matrigel-coated flasks prepared with a working solution of 1X Ham's F-12 nutrient mix, without supplementation (Invitrogen, Waltham, MA, cat. 11765054), 100 U/mL penicillin-streptomycin (Invitrogen, cat. 15140122), and 2.5% Matrigel (Corning Inc., Corning, NY, cat. 354248) for the first three passages. The 362531-283-R-J2-PDC and 782815-120-R-J1-PDC lines were cultured in 6C/Colon 1B media, which includes advanced DMEM/F-12 (Thermo Fisher Scientific, cat. 12634028), 10 mM HEPES (Thermo Fisher Scientific, cat. 15630080), 1X GlutaMAX supplement (Thermo Fisher Scientific, cat. 35050061), 0.1 mg/mL primocin (InvivoGen, San Diego, CA, cat. ant-pm-2), 10% defined fetal bovine serum, heat inactivated (HyClone Laboratories Inc., Logan, UT, cat. SH30070.03HI), 50% L-WRN conditioned media (ATCC, cat. CRL-3276), 1.25 mM N-Acetyl-L-cysteine (Sigma-Aldrich, cat. A9165), 10 mM nicotinamide (Sigma-Aldrich, cat. N0636), 1X B-27 supplement (Thermo Fisher Scientific, cat. 17504044), 1X N-2 supplement (Thermo Fisher Scientific, cat. 17502048), 50 ng/mL human EGF (Thermo Fisher Scientific, cat. PHG0311), and 10 microM Y-27632 dihydrochloride (Tocris Bioscience, cat. 1254). The K12877-001-R-J1-PDC line was cultured in 6I media, which includes all 6C/Colon 1B media plus 10 ng/mL human FGF-10 (PeproTech, cat. 100-26), 1 ng/mL human FGF-2 (PeproTech, cat. 100-18B), 1 µM prostaglandin E2 (Tocris Bioscience, cat. 2296), […] hydrocortisone (Sigma-Aldrich, cat. H4001), and […] bovine insulin (Sigma-Aldrich, cat. I6634). The K86415-001-R-J1-PDC line was cultured in 6D media, which includes all 6C/Colon 1B media components minus the L-WRN conditioned media. The 485176-168-R4-J1-PDC was cultured in PANC media, which includes all 6C/Colon 1B media plus 100 ng/mL human FGF-10 (PeproTech, cat. 100-26), 500 nM SB-431542 (Selleckchem, cat. S1067), and 10 nM gastrin (Tocris Bioscience, cat. 3006). […]

[1] = second compound 0.0316 µM, first compound 0.0316 µM
[2] = second compound 0.0316 µM, first compound 0.1 µM
[3] = second compound 0.0316 µM, first compound 0.316 µM
[4] = second compound 0.0316 µM, first compound 1 µM
[5] = second compound 0.1 µM, first compound 0.0316 µM
[6] = second compound 0.1 µM, first compound 0.1 µM
[7] = second compound 0.1 µM, first compound 0.316 µM
[8] = second compound 0.1 µM, first compound 1 µM
[9] = second compound 0.316 µM, first compound 0.0316 µM
[10] = second compound 0.316 µM, first compound 0.1 µM
[11] = second compound 0.316 µM, first compound 0.316 µM
[12] = second compound 0.316 µM, first compound 1 µM
[13] = second compound 1 µM, first compound 0.0316 µM
[14] = second compound 1 µM, first compound 0.1 µM
[15] = second compound 1 µM, first compound 0.316 µM
[16] = second compound 1 µM, first compound 1 µM
[17] = second compound 3.16 µM, first compound 0.0316 µM
[18] = second compound 3.16 µM, first compound 0.1 µM
[19] = second compound 3.16 µM, first compound 0.316 µM
[20] = second compound 3.16 µM, first compound 1 µM
[21] = second compound 10 µM, first compound 0.0316 µM
[22] = second compound 10 µM, first compound 0.1 µM
[23] = second compound 10 µM, first compound 0.316 µM
[24] = second compound 10 µM, first compound 1 µM
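Also: spheroids exposed to compound for seven days before readout.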
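For viability, T/C in this document: 100% = DMSO vehicle control wells.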

CCC(CC)c1cc(NC2CCC(N)C2)n2nccc2n1 (centres undefined) + C#Cc1c(F)ccc2cc(O)cc(-c3ncc4c(N5CC6CCC(C5)N6)nc(OCC56CCCN5CC(F)C6)nc4c3F)c12
IC50 (second compound 0.0316 µM): 1070 nM | IC50 (second compound 0.1 µM): 1210 nM | IC50 (second compound 0.316 µM): 1240 nM | IC50 (second compound 1 µM): 1260 nM | IC50 (second compound 3.16 µM): 1090 nM | IC50 (second compound 10 µM): 32 nM | viability, T/C [1]: 113% | viability, T/C [2]: 105% | viability, T/C [3]: 97.6% | viability, T/C [4]: 54.5% | viability, T/C (second compound 0.0316 µM, first compound 3.16 µM): 1.81% | viability, T/C (second compound 0.0316 µM, first compound 10 µM): 0.32% | viability, T/C [5]: 119% | viability, T/C [6]: 98.3% | viability, T/C [7]: 101% | viability, T/C [8]: 60% | viability, T/C (second compound 0.1 µM, first compound 3.16 µM): 2.14% | viability, T/C (second compound 0.1 µM, first compound 10 µM): 0.33% | viability, T/C [9]: 99.7% | viability, T/C [10]: 107% | viability, T/C [11]: 93.4% | viability, T/C [12]: 61.6% | viability, T/C (second compound 0.316 µM, first compound 3.16 µM): 1.82% | viability, T/C (second compound 0.316 µM, first compound 10 µM): 0.52% | viability, T/C [13]: 103% | viability, T/C [14]: 121% | viability, T/C [15]: 105% | viability, T/C [16]: 61.9% | viability, T/C (second compound 1 µM, first compound 3.16 µM): 2.03% | viability, T/C (second compound 1 µM, first compound 10 µM): 0.38% | viability, T/C [17]: 105% | viability, T/C [18]: 97.1% | viability, T/C [19]: 92.5% | viability, T/C [20]: 55% | viability, T/C (second compound 3.16 µM, first compound 3.16 µM): 1.64% | viability, T/C (second compound 3.16 µM, first compound 10 µM): 0.34% | viability, T/C [21]: 52.9% | viability, T/C [22]: 32.4% | viability, T/C [23]: 30% | viability, T/C [24]: 25.2% | viability, T/C (second compound 10 µM, first compound 3.16 µM): 0.4% | viability, T/C (second compound 10 µM, first compound 10 µM): 0.18%

CCN1CCN(Cc2ccc(Nc3ncc(F)c(-c4cc(F)c5nc(C)n(C(C)C)c5c4)n3)nc2)CC1 + C#Cc1c(F)ccc2cc(O)cc(-c3ncc4c(N5CC6CCC(C5)N6)nc(OCC56CCCN5CC(F)C6)nc4c3F)c12
IC50 (second compound 0.0316 µM): 269 nM | IC50 (second compound 0.1 µM): 256 nM | IC50 (second compound 0.316 µM): 235 nM | IC50 (second compound 1 µM): 298 nM | IC50 (second compound 3.16 µM): 196 nM | IC50 (second compound 10 µM): 6.16 nM | viability, T/C (second compound 0.0316 µM, first compound 0.00316 µM): 98.6% | viability, T/C (second compound 0.0316 µM, first compound 0.01 µM): 87.4% | viability, T/C [1]: 91.9% | viability, T/C [2]: 74.3% | viability, T/C [3]: 46% | viability, T/C [4]: 37.5% | viability, T/C (second compound 0.1 µM, first compound 0.00316 µM): 101% | viability, T/C (second compound 0.1 µM, first compound 0.01 µM): 92.6% | viability, T/C [5]: 96.6% | viability, T/C [6]: 75.2% | viability, T/C [7]: 44.4% | viability, T/C [8]: 42.1% | viability, T/C (second compound 0.316 µM, first compound 0.00316 µM): 112% | viability, T/C (second compound 0.316 µM, first compound 0.01 µM): 99.5% | viability, T/C [9]: 96% | viability, T/C [10]: 65.4% | viability, T/C [11]: 44.9% | viability, T/C [12]: 32.2% | viability, T/C (second compound 1 µM, first compound 0.00316 µM): 93% | viability, T/C (second compound 1 µM, first compound 0.01 µM): 101% | viability, T/C [13]: 96.5% | viability, T/C [14]: 72.1% | viability, T/C [15]: 51.2% | viability, T/C [16]: 38.2% | viability, T/C (second compound 3.16 µM, first compound 0.00316 µM): 107% | viability, T/C (second compound 3.16 µM, first compound 0.01 µM): 92.3% | viability, T/C [17]: 91.2% | viability, T/C [18]: 56.5% | viability, T/C [19]: 45.9% | viability, T/C [20]: 33.6% | viability, T/C (second compound 10 µM, first compound 0.00316 µM): 56.4% | viability, T/C (second compound 10 µM, first compound 0.01 µM): 45.8% | viability, T/C [21]: 32.5% | viability, T/C [22]: 21.5% | viability, T/C [23]: 11.3% | viability, T/C [24]: 2.36%
